Results on 13 molecules are retold here after US20220313701A1, “MODULATORS OF TREX1” (Constellation Pharmaceuticals, Inc., priority 2019, published 2022).

The structures appear in SMILES notation. pIC50: −log10 of the molar value.

In assay [1] the target is T1, full length human TREX1 (Homo sapiens, UniProt Q9NSU2).
T1 construct: N-terminally His-Tev tagged full length human TREX1; His-Tev (His tag with TEV site) (N); made in house; host or cells: E. coli
T1 sequence (Q9NSU2 1-314): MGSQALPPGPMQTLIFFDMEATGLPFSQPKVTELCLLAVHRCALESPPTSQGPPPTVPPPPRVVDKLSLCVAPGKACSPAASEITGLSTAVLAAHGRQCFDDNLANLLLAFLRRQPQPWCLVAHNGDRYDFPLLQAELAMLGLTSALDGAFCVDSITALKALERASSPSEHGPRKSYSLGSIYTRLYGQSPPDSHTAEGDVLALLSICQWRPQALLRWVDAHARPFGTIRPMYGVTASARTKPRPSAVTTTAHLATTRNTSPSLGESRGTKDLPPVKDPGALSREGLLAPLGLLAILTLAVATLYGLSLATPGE
As to the kind of experiment: TREX1 Biochemical Assay (fluorescence assay, degradation of dsDNA substrate). Particulars: 150 pM TREX1, 60 nM dsDNA substrate, 25 minutes at room temperature. In a few lines:
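N-terminally His-Tev-tagged enzyme expressed in E. coli, 150 pM, with 60 nM dual-labelled dsDNA (TEX615/quencher) in pH 7.4 Tris buffer with MgCl2, 1% DMSO; 10-point dose-response, 25 min at room temperature, then EDTA quench. Fluorescence at 615 nm (excitation 570 nm); IC50 from four-parameter fit against pre-quenched and no-inhibitor controls.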

Assay [2] has as its target T2, human TREX2 (residues M44-A279) (Homo sapiens, UniProt Q9BQ50).
T2 construct: human TREX2 (residues M44-A279, expressed in E. coli); His-Tev (His tag with TEV site) (N); made in house; host or cells: E. coli
T2 sequence (Q9BQ50 44-279 isoform Q9BQ50-1): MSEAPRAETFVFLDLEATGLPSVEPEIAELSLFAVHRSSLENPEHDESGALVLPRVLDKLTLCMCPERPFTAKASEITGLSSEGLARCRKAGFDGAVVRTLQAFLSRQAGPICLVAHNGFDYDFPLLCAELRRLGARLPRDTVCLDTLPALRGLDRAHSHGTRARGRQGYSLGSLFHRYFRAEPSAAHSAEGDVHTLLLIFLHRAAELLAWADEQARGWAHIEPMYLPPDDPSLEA
As to the kind of experiment: TREX2 Biochemical Assay (fluorescence assay, degradation of dsDNA substrate). Particulars: 2.5 nM TREX2, 60 nM dsDNA substrate, 25 minutes at room temperature. In a few lines: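 Final conditions: 2.5 nM His-Tev-tagged TREX2 (E. coli-expressed), 60 nM fluorophore/quencher-labelled dsDNA, 50 mM Tris pH 7.4, 150 mM NaCl, 100 mM MgCl2, 1% DMSO; 10-point compound dose-response. Incubated 25 min at room temperature, then EDTA-quenched; fluorescence read at ex 570/em 615 nm. IC50 from four-parameter fit against pre-quenched and no-inhibitor controls.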

For `Cc1nn(C)cc1-c1cc(C(N)=O)cc(N2CCC(O)(c3ccc(F)c(Cl)c3)CC2)n1` [Example 94, 2-(4-(3-chloro-4-fluorophenyl)-4-hydroxypiperidin-1-yl)-6-(1,3-dimethyl-1H-pyrazol-4-yl)isonicotinamide], the negative-log IC50 (pIC50) in assay [1] is 6.00 to 7.00; in assay [2], below 4.00.

In the case of `Cc1nn(C)cc1-c1nnc(N2CCC(O)(c3ccc(F)c(F)c3)CC2)s1` [Example 95, 4-(3,4-difluorophenyl)-1-(5-(1,3-dimethyl-1H-pyrazol-4-yl)-1,3,4-thiadiazol-2-yl)piperidin-4-ol], the negative logarithm of the IC50 (pIC50) in assay [1] was 5.00 to 6.00; in assay [2], below 4.00.

Take `Cc1nn(C)cc1-c1nsc(N2CCC(O)(c3ccc(F)c(F)c3)CC2)n1` [Example 96, 4-(3,4-difluorophenyl)-1-(3-(1,3-dimethyl-1H-pyrazol-4-yl)-1,2,4-thiadiazol-5-yl)piperidin-4-ol]: the pIC50 in assay [1] was 6.00 to 7.00; in assay [2], below 4.00.

As for `Cc1nn(C)cc1-c1csc(N2CCC(O)(c3ccc(F)c(F)c3)CC2)n1` [Example 97, 4-(3,4-difluorophenyl)-1-(4-(1,3-dimethyl-1H-pyrazol-4-yl)thiazol-2-yl)piperidin-4-ol], the figures for the pIC50 in assay [1] and in assay [2] were 5.00 to 6.00 and below 4.00, respectively.

Turning to `Cc1nn(C)cc1-c1nc(N2CCC(O)(c3ccc(F)c(F)c3)CC2)sc1C(N)=O` [Example 98, 2-(4-(3,4-difluorophenyl)-4-hydroxypiperidin-1-yl)-4-(1,3-dimethyl-1H-pyrazol-4-yl)thiazole-5-carboxamide], the pIC50 in assay [1] was 6.00 to 7.00; in assay [2], below 4.00.

`Cc1nn(C)cc1-c1c[nH]c(=O)c(N2CCC(O)(c3ccc(F)c(F)c3)CC2)n1` [Example 99, 3-(4-(3,4-difluorophenyl)-4-hydroxypiperidin-1-yl)-5-(1,3-dimethyl-1H-pyrazol-4-yl)pyrazin-2(1H)-one]: the pIC50 in assay [1] was 6.00 to 7.00; in assay [2] it was below 4.00.

`Cc1nc(-c2cn(C)nc2-c2ccccc2)cc(N2CCC(O)(c3ccc(F)c(F)c3)CC2)n1` [Example 100, 4-(3,4-difluorophenyl)-1-(2-methyl-6-(1-methyl-3-phenyl-1H-pyrazol-4-yl)pyrimidin-4-yl)piperidin-4-ol]: the values for the pIC50 in assay [1] and in assay [2] were 6.00 to 7.00 and below 4.00, respectively.

`Cc1nc(-c2cn(C)nc2Cc2ccccc2)cc(N2CCC(O)(c3ccc(F)c(F)c3)CC2)n1` [Example 101, 1-(6-(3-benzyl-1-methyl-1H-pyrazol-4-yl)-2-methylpyrimidin-4-yl)-4-(3,4-difluorophenyl)piperidin-4-ol]: the negative-log IC50 (pIC50) is 6.00 to 7.00 in assay [1] and below 4.00 in assay [2].

As for `Cc1nc(N2CCC(O)(c3ccc(F)c(F)c3)CC2)cc(N2CCOC[C@H]2c2ccccc2)n1` [Example 104, (R)-4-(3,4-difluorophenyl)-1-(2-methyl-6-(3-phenylmorpholino)pyrimidin-4-yl)piperidin-4-ol], the negative logarithm of the IC50 (pIC50) is 5.00 to 6.00 in assay [1] and below 4.00 in assay [2].

`Cc1nc(N2CCC(O)(c3ccc(F)c(F)c3)CC2)cc(N2CCOC[C@@H]2c2ccccc2)n1` [Example 105, (S)-4-(3,4-difluorophenyl)-1-(2-methyl-6-(3-phenylmorpholino)pyrimidin-4-yl)piperidin-4-ol]: the pIC50 is 5.00 to 6.00 in assay [1] and below 4.00 in assay [2].

Turning to `Cc1nc(N2CCC(O)(c3ccc(F)c(F)c3)CC2)cc(-n2ccnc2-c2ccccn2)n1` [Example 106, 4-(3,4-difluorophenyl)-1-(2-methyl-6-(2-(pyridin-2-yl)-1H-imidazol-1-yl)pyrimidin-4-yl)piperidin-4-ol], the negative logarithm of the IC50 (pIC50) is 5.00 to 6.00 in assay [1] and below 4.00 in assay [2].

In the case of `Cc1nc(N2CCC(O)(c3ccc(F)c(F)c3)CC2)cc(-n2c(C)cnc2-c2ccccn2)n1` [Example 107, 4-(3,4-difluorophenyl)-1-(2-methyl-6-(5-methyl-2-(pyridin-2-yl)-1H-imidazol-1-yl)pyrimidin-4-yl)piperidin-4-ol], the pIC50 in assay [1] is 5.00 to 6.00; in assay [2], below 4.00.

For the molecule `Cc1nc(N2CCC(O)(c3ccc(F)c(F)c3)CC2)cc(N(C)C2(c3ccccn3)CC2)n1` [Example 108, 4-(3,4-difluorophenyl)-1-(2-methyl-6-(methyl(1-(pyridin-2-yl)cyclopropyl)amino)pyrimidin-4-yl)piperidin-4-ol], the pIC50 in assay [1] was 6.00 to 7.00; in assay [2], below 4.00.
